Assays:
[1] = test system: OMM1 uveal melanoma cell line (GNA11 mutation); assay: Proliferation measurement by xCELLigence; assay type: cell-based; conditions: OMM1 cells, 0.5 μM per compound, 6 days
Experimental: (§1) 92.1 and OMM-1 uveal melanoma cell lines were cultured in Roswell Park Memorial Institute medium (RPMI 1640) (American Type Culture Collection (ATCC #30-2001)) supplemented with 10% fetal bovine serum and incubated at 37° C./5% carbon dioxide.
(§2) Compound stocks of 3-(1H-indol-3-yl)-4-[2-(4-methyl-piperazin-1-yl)-quinazolin-4-yl]-1H-pyrrole-2,5-dione, hereafter AEB071, and of 6-(4-bromo-2-fluorophenylamino)-7-fluoro-3-methyl-3H-benzoimidazole-5-carboxylic acid (2-hydroxyethoxy)-amide, hereafter COMPOUND B, were prepared in dimethylsulfoxide (DMSO) at a final concentration of 10 mM.
(§3) Growth of uveal cells was continuously monitored with the xCELLigence real-time cell analyzer. E-plates (Roche #05 232 368 001) were incubated with cells added at a final concentration of 3000 cells per 100 μl per well. Impedance was measured every 2 hours for 24 hours. […] Impedance was measured every 2 hours over 7 days. Data was normalized to day 0 prior to compound addition.
(§4) The effect of 3-(1H-indol-3-yl)-4-[2-(4-methyl-piperazin-1-yl)-quinazolin-4-yl]-1H-pyrrole-2,5-dione (COMPOUND A) and 6-(4-bromo-2-fluorophenylamino)-7-fluoro-3-methyl-3H-benzoimidazole-5-carboxylic acid (2-hydroxyethoxy)-amide (COMPOUND B) on uveal melanoma proliferation in vitro is shown (FIG. 1).

[2] = test system: 92.1 human uveal melanoma xenograft (GNAQ mutation); assay: In vivo activity in the 92.1 human uveal melanoma nude mouse xenograft model
Experimental: NVP-AEB071 (also referred to as AEB071) (acetate salt, 87.96% free base) powder was added to 20% polyethyleneglycol 400 (PEG400): 4.5% 0.1M HCl: 75.5% of 5% dextrose in water (D5W), designated as Vehicle 1, and stirred to obtain a clear red solution. NVP-COMPOUND B (also referred to as COMPOUND B) was formulated as a homogenous suspension in 1% carboxymethyl cellulose: 0.5% Tween® 80 in deionized water. A fresh suspension was prepared once per week for each compound and stored at 4° C.
The animals were fed ad libitum water (reverse osmosis, 1 ppm Cl) and NIH 31 Modified and Irradiated Lab Diet® consisting of 18.0% crude protein, 5.0% crude fat, and 5.0% crude fiber. The mice were housed on irradiated Enrich-O'Cobs™ Laboratory Animal Bedding in static microisolators on a 12-hour light cycle at 20-22° C. (68-72° F.) and 40-60% humidity. DRS-NC specifically complies with the recommendations of the Guide for Care and Use of Laboratory Animals with respect to restraint, husbandry, surgical procedures, feed and fluid regulation, and veterinary care. The animal program at DRS-NC is accredited by the Association for Assessment and Accreditation of Laboratory Animal Care (AAALAC) International, which assures compliance with accepted standards for the care and use of laboratory animals.
The 92.1 uveal melanoma cells were harvested during exponential growth, and re-suspended in cold PBS (phosphate buffered saline) with 50% Matrigel™ (BD Biosciences). Each mouse was inoculated subcutaneously in the right flank with 5×10^6 cells (0.2 mL of cell suspension). Tumors were calipered in two dimensions to monitor growth as their mean volume approached the desired 100-150 mm^3 range. Tumor size, in mm^3, was calculated from: Tumor Volume=(w^2×l)/2 where w=width and l=length, in mm, of the tumor. Tumor weight could be estimated with the assumption that 1 mg was equivalent to 1 mm^3 of tumor volume. Twelve days after tumor cell implantation, on Day 1 (D1) of the study, animals with individual tumor volumes of 108-256 mm^3 were sorted into six groups (n=10/group) with group mean tumor volumes of 153-159 mm^3.
AEB071 was administered at 91 mg/kg three times daily (TID) dosing for 21 days. Efficacy was determined from tumor growth inhibition on day 17, the last day with all mice on the study. The activity was calculated at tumor/control (T/C), the percent mean tumor volume change from day 1 to day 17 in drug treated mice (ΔT) versus vehicle treated mice, or as a T/T0, the percent reduction in the group mean tumor volume from day 1. […] Addition of COMPOUND B dosed twice daily at 3.5 mg/kg to the AEB071 regimen yielded a −22% T−T0 (p<0.001 median activity, but not significant compared to AEB071 alone). COMPOUND B had no activity in its own right with a T/C of 84%.
Mice were dosed for 21 days, then treatment ceased and tumor outgrowth was monitored. […] Tumor growth delay was not calculated because two or more tumors per group became static after an initial growth period, but the trend of tumor outgrowth rate indicated the AEB071 plus COMPOUND B combination tumors grew out slower than AEB071 single agent, COMPOUND B single agent treated tumors were not monitored due to lack of efficacy.
The effectiveness of the combination increased in a dose dependent manner, with increasing AEB071 dose in combination with COMPOUND B yielding a greater magnitude of response. AEB071 was administered at […] and 22.74 mg/kg, (equivalent to 80, 40 and 20 mg/kg free base) with three times daily dosing (TID) for 21 days in combination with COMPOUND B at 3.5 mg/kg with twice daily dosing in the 92.1 human uveal melanoma nude mouse xenograft model. Efficacy was determined from tumor growth inhibition on day 22. The activity was calculated at tumor/control (T/C), the percent mean tumor volume change from day 1 to day 22 in drug treated mice (ΔT) versus vehicle treated mice, or as a T/T0, the percent reduction in the group mean tumor volume from day 1. […]

[3] = test system: 92.1 uveal melanoma cell line (GNAQ mutation); assay: Proliferation measurement by xCELLigence; assay type: cell-based, human; conditions: 92.1 cells, 0.5 μM per compound, 6 days
Experimental: as §1, §2, §3, §4

pMEK1/2 = assay: Protein immunoblot following drug treatment of uveal melanoma cell lines; assay type: cell-based, human; conditions: 92.1 and OMM-1 cells, 0.5 μM per agent, over time, clearly observed at 48 hours
Experimental: (§5) Uveal melanoma cells were incubated with 0.5 μM AEB071, 0.5 μM COMPOUND B, both compounds or DMSO alone. Cells were lysed after 2, 4, 8, 24 or 48 hours of treatment in M-PER mammalian protein extraction buffer containing PhosStop Phosphatase inhibitor cocktail tablet (Roche Diagnostics #04 906 837 001) and Complete Protease Inhibitor cocktail tablet (Roche Diagnostics #11 836 145 001). Proteins were separated on a 4-12% Bis-Tris NuPAGE SDS gel (Invitrogen #WG1403Bx10) and subsequently transferred to a nitrocellulose membrane using a dry blotting system (Invitrogen iBLOT). Proteins were detected with 1:1000 dilutions of anti-p44/42 MAPK (Cell Signaling Technologies #4377), anti-pMARCKS (Cell Signaling Technologies #2741), anti-pMEK1/2 (Cell Signaling Technologies #9121) and anti-Beta Actin (Ambion#AM4202). Beta actin was detected using the appropriate secondary antibody and an infrared dye detection system (Odyssey IRDye, LI-COR) according to the manufacturer's protocol. All other proteins were detected using an anti-rabbit-HRP secondary antibody and developed with SuperSignal West Dura Chemiluminescent Substrate (Thermo Scientific #34076) on a Syngene imaging system.
(§6) The biochemical effect of these agents was assessed following treatment with 0.5 μM AEBO071, 0.5 μM COMPOUND B or 0.5 μM of each agent together in the uveal melanoma cell lines 92.1 and OMM-1. The level of pMARCKS was attenuated (FIG. 3). […] The combination of AEB071 and COMPOUND B suppressed pathway components to a greater magnitude and duration compared to either single agent.

pERK1/2 = assay: as above; assay type: cell-based, human; conditions: 92.1 and OMM-1 cells
Experimental: as §5, §6

[4] = test system: 92.1 uveal melanoma cell line; assay: Cell proliferation in combination dose matrix (Cell Titer Glo, Chalice); assay type: cell-based, human; conditions: 92.1 cells; for anti-proliferative response in dose matrix: 0.039 μM to 10 μM; for inhibition at 0.16 µM: Homo sapiens, 0.16 μM of each agent, 144 hours, Cell Titer Glo, read-out: growth inhibition (FIG. 2, top panel)
Experimental: Cells were seeded at a density of 3000 cells per 100 μl of medium per well in 96-well plates (Costar #3904) and incubated overnight prior to compound addition. Compound stock was freshly prepared in the appropriate culture medium and manually added to the plates by electronic multichannel pipette in three replicates. Cells were treated with compound alone or with a combination of AEB071 and COMPOUND B diluted 1:2 for a ten point dilution ranging from 0.039 μM to 10 μM. The viability of cells was assessed at the time of compound addition and after 144 hours of treatment by quantification of cellular ATP levels via Cell Titer Glo (Promega #G7571) according to the manufacturer's protocol. Plates were read on a luminescence plate reader (Victor X4, Perkin Elmer). Fractional inhibition of growth was calculated using XLfit and normalized to no compound wells. For growth inhibition, day 0 values were subtracted before calculating inhibition. Data was analyzed by Chalice software
(http://chalice.zalicus.com/documentation/analyzer/index.jsp) to calculate growth inhibition, inhibition and HSA excess.
FIG. 2 provides a closer look at the patterns of synergy between the two agents in the 92.1 cell line. The dose matrix between the two agents is shown; the effect on cell growth relative to untreated cells is shown in the top panel, the excess inhibition (HSA) in the center panel and the growth inhibition relative to day zero normalization is shown in the bottom panel. Methods of calculations for growth inhibition, inhibition and HSA excess are known in the art.
Inhibition and excess inhibition values for all dose combinations can be seen in FIG. 2. The growth rate of the cells during the […] assay was taken into account for the calculation of growth inhibition percent shown in FIG. 2, bottom panel. 100% indicated stasis, meaning the cells had neither grown nor died during the course of the assay, values in excess of 100 indicate death, 200 being complete cell death, and values below 100 indication growth from the start of the assay to the day 3 end point.

pMARCKS = assay: Protein immunoblot following drug treatment of uveal melanoma cell lines; assay type: cell-based, human; conditions: 92.1 and OMM-1 cells, 0.5 μM per agent, 2-48 hours
Experimental: as §5, with “system. The biochemical effect of these agents was assessed following treatment with 0.5 μM AEBO071, 0.5 μM COMPOUND B or 0.5 μM of each agent together in the uveal melanoma cell lines 92.1 and OMM-1. […]” for “system.”

Structure (SMILES)	effect on growth of uveal melanoma cell line (xCELLigence) [1]	T/C (tumor/control) ([2]; COMPOUND B 3.5 mg/kg twice daily, day 17) [%]	T/C (tumor/control) ([2]; COMPOUND B 3.5 mg/kg twice daily, day 22) [%]	effect on growth of uveal melanoma cell line (xCELLigence) [3]	pMEK1/2 expression (pMEK1/2)	pERK1/2 levels (pERK1/2; 0.5 μM per agent, seen at 2 hrs, time course 2-48 hours)	pERK1/2 expression by 24 hours (pERK1/2; 0.5 μM, 24 hours)	anti-proliferative response in dose matrix [4]	inhibition at 0.16 µM [4] [%]	level of pMARCKS (pMARCKS)	mean tumor response during the dosing period ([2]; 21 days dosing (FIG. 5))	T/C (tumor/control) ([2]; AEB071 22.7 mg/kg (20 mg/kg free base) TID for 21 days, day 22, non-significant) [%]	T/C (tumor/control) ([2]; AEB071 45.5 mg/kg (40 mg/kg free base) TID for 21 days, day 22, non-significant) [%]	T/C (tumor/control) ([2]; AEB071 90.95 mg/kg (80 mg/kg free base) TID for 21 days, day 22, p<0.05) [%]	T/C (tumor/control) ([2]; AEB071 (acetate salt) 91 mg/kg TID for 21 days, day 17, p<0.01) [%]	tumor progression after the dosing period ([2]; two weeks following the 21 day dosing period, followed >70 days (FIG. 5))
Cn1cnc2c(F)c(Nc3ccc(Br)cc3F)c(C(=O)NOCCO)cc21 [COMPOUND B, 6-(4-bromo-2-fluorophenylamino)-7-fluoro-3-methyl-3H-benzoimidazole-5-carboxylic acid (2-hydroxyethoxy)-amide]	modest effect	84	56	modest effect	induction of pMEK1/2 expression	reduction in pERK1/2 levels	beginning to return	active	57							
CN1CCN(c2nc(C3=C(c4c[nH]c5ccccc45)C(=O)NC3=O)c3ccccc3n2)CC1 [AEB071, 3-(1H-indol-3-yl)-4-[2-(4-methyl-piperazin-1-yl)-quinazolin-4-yl]-1H-pyrrole-2,5-dione]	delayed cell growth			delayed cell growth				active	19	attenuated	near complete mean tumor stasis	92	52	18	3	progressed at the control pace

Source: patent US9446043B2, “Pharmaceutical combinations” (Novartis AG, priority 2012, dated 2016)
